Assays:
[1] = target: T1, IRAK3-ePL (Homo sapiens, UniProt Q9Y616); test: IRAK3-ePL overexpressing degradation assay (InCELL Hunter luminescence, dose response); format: cell-based; conditions: for IRAK3 ePL degradation Ymin: lowest percentage of target protein remaining following compound treatment; for DC50: read-out: IRAK3 ePL degradation EC50
T1 construct: expressed in transfected cells; host or cells: 293T CRBN OE/GSPT1 G575N KI cells, lentiviral transduction, puromycin selected
Protocol: Example B1. IRAK3-ePL Overexpressing Degradation Assay
Stable cell lines were generated by the following protocol. 3×10^5 Lenti-X 293T cells (Clonetech) were plated in 0.8 mL of media in a 12-well plate and incubated overnight at 37° C./5% CO2. Packaging plasmid (0.4 μg, pMD), envelope plasmid (0.4 μg, pSP), and lentiviral transfer IRAK3-ePL plasmid (0.8 μg, TRAK3 sequence NM_007199.3) were mixed in 0.1 mL of Opti-MEM and incubated for 5 min. Simultaneously, 2.4 μL of Lipofectamine 2000 (Invitrogen) was added to 0.1 mL of Opti-MEM (Gibco) and incubated for 5 min. The plasmid DNA and lipofectamine were combined and the mixture was allowed to incubate for 20 min.DNA:Lipofectamine Opti-MEM mixtures were then added to previously plated cells dropwise and the cells were incubated for ~16 h at 37° C./5% CO2. Following incubation, the media was removed and 1.2 mL of fresh media was added per well. Lenti-X 293T cells were incubated for ~30 h at 37° C./5% CO2. […] Following incubation, media was removed from the Lenti-X 293T wells and passed through a […] filter. Part of the viral supernatant was used to transduce cells and the rest was stored at −80° C. Viruses were then added individually (0.5 mL virus) to each well of the 293T^CRBN OE/GSPT1 G575N KI cells, followed by addition of polybrene (10 mg/mL Millipore) to each well at a final concentration of 5.0 μg/mL. Cells were incubated for ~24 h at 37° C./5% CO2. After aspirating media off plates, cells were washed with DPBS, trypsinized and plated in a 10 cm dish in 15 mL of media and […] puromycin. Following incubation of cells for ~72 h at 37° C./5% CO2, media was aspirated off plates, and cells were washed with DPBS and trypsinized. The cells were plated in a 15 cm dish in 40 mL of media with 1.0 μg/mL Puromycin (Gibco) and incubated for ~72 h at 37° C./5% CO2. Following incubation, media was removed and cells were washed with DPBS and trypsinized. The majority of cells were resuspended in Invitrogen freezing media and stored away (~6-8×10^6 cells/vial).
IRAK3-ePL cellular dose response curve degradation assays were performed by the following protocol. Compounds to be tested were dispensed into a white 384-well tissue-culture treated plate using an acoustic liquid handler. Dilutions were prepared based on a 25 μL assay volume in duplicate 10 point 3-fold serial dilutions starting with a 10 μM dose. Negative control wells were included, which only contain 0.2% DMSO to calculate 100% signal. Positive control wells containing 30 μM Ataluren (luciferase inhibitor) were included to calculate the background signal level. All wells were backfilled to a final DMSO concentration of 0.2% to ensure DMSO uniformity across wells. IRAK3-ePL expressing cells (IRAK3-ePL Lenti-X 293T^CRBN/GSPT1 G575N) were washed, trypsinized, counted, and resuspended in fresh DMEM (Gibco) to give a cell concentration of 200,000 cells/mL. 25 μL of cells (5,000 cells/well) were dispensed into the wells of the 384-well plate prespotted with compounds in the previous step and incubated overnight at 37° C./5% CO2. Following incubation, the 384-well plate was taken out of the incubator and left at room temperature for 30 min. InCELL hunter reagent was prepared according to manufacturer's instructions (EA reagent, lysis buffer, and substrate reagent in a 1:1:4 ratio, Cat #96-0002, DiscoverX), which was added to the 384-well plate 25 μL per well. Following the incubation of the plate for 1 h at room temperature, the luminescence signal was read using a ViewLux plate reader. Data was processed and analyzed in ActivityBase software. In short, the average luminescence values of the positive control wells were subtracted from the rest of the wells for background correction, and all luminescence values were normalized to the DMSO control wells. The average value of the DMSO control wells was set to equal 100% of the relative IRAK3-ePL protein levels. […]

[2] = target: T2, IRAK3 (Homo sapiens, UniProt Q9Y616); test: IRAK endogenous HTRF degradation assay (Total-IRAK3 HTRF kit); format: cell-based; conditions: overnight incubation, lowest percentage of protein remaining
T2 construct: IRAK Endogenous HTRF Degradation Assay; endogenous in cells
T2 sequence (Q9Y616 1-596): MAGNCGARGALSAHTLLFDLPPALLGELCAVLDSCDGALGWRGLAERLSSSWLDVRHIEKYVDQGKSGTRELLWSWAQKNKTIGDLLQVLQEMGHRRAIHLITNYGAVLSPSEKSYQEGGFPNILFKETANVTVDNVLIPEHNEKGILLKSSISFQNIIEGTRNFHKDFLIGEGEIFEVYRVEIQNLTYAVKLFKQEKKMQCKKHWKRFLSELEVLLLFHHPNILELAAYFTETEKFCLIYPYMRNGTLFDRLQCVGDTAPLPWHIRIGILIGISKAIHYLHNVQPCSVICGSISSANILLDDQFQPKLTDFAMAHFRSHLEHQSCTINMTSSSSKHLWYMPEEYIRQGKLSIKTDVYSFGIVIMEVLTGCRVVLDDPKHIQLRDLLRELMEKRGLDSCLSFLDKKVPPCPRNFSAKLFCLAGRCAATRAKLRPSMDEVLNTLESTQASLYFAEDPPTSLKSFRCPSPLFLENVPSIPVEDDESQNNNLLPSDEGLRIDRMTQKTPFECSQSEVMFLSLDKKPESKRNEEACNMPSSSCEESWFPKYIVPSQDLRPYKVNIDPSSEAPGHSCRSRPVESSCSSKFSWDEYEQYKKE
Protocol: Example B2. IRAK Endogenous HTRF Degradation Assay
Cells (~50 k) were plated in Cisbio 96-well low volume white plates (Cisbio: cat #66PL96005). Compounds were dissolved in DMSO and a 3-fold serial dilution was performed using a TECAN D300E. Cells were incubated with the compound overnight. Total-IRAK3 HTRF kit from Cisbio was used for degradation analysis (Cisbio: 63ADK101PEH). Cryptate and D2 antibodies were diluted in Detection buffer as per manufacturers recommendation. Then 2 μL of each solution was added to 16 μL lysate. Buffer control (lysis buffer detection buffer), Cryptate control (lysis buffer+cryptate antibody+detection buffer), and Negative control (lysis buffer+cryptate antibody+D2 antibody) were made as per manufacturers recommendation. Post incubation with antibodies the HTRF signal was measured using a Perkin Elmer Envision reader and the HTRF signal was calculated using formula: (Emission at 665 nm/Emission at 615 nm)*10,000. All HTRF values were normalized to the average value of DMSO. The average value of the DMSO control wells were set to equal 100% of the relative IRAK3 protein levels. Normalized luminescence values were plotted on a graph as a function of compound concentration. Compound concentration was plotted on the x-axis and the corresponding normalized IRAK3 protein levels on the y-axis. The EC50 value (the half-maximum effective concentration) of a compound for the degradation of the IRAK3 was calculated using a four-parameter logistic model (sigmoidal dose-response model) (FIT=(A+{(B−A)/1+[(C/x)D]})) where C is the inflection point (EC50), D is the […], and A and B are the low and high limits of the fit, respectively). The Ymin was calculated by determining the lowest percentage of target protein remaining following compound treatment. Dmax was calculated from Ymin (% Dmax=100−Ymin).
Using these assays, IC50, Dmax, EC50, and DC50 values of the following compounds were determined. Dmax is defined as the maximum percent degradation achieved and DC50 is the concentration at which 50% degradation is achieved.

IRAK3 ePL degradation Ymin [1] [%] | DC50 [1] [nM] | IRAK3 HTRF degradation Ymin [2] [%] | Structure (SMILES)
26 | 0.97 | 8.1 | Cc1cc(-c2cnc(Nc3cnn(C4CCN(CCN5CCN(c6ccc(C7CCC(=O)NC7=O)cc6)[C@@H](C)C5)CC4)c3)c3nccn23)c(F)cc1F (stereo partly drawn) [Compound 44, 3-(4-((S)-4-(2-(4-(4-((5-(2,4-difluoro-5-methylphenyl)imdazo [1,2-a]pyrazin-8-yl)amino)-1H-pyrazol-1-yl)piperidin-1-yl)ethyl)-2-methylpiperazin-1-yl)phenyl) piperidine-2,6-dione]
24 | 0.51 | 9.1 | Cn1cc(-c2cnc(Nc3cnn(C4CCN(CCN5CCN(c6ccc(C7CCC(=O)NC7=O)cc6)CC5)CC4)c3)c3nccn23)cn1 (centres unmarked) [Compound 73, 3-(4-(4-(2-(4-(4-((5-(1-methyl-1H-pyrazol-4-yl)imidazo[1,2-a]pyrazin-8-yl)amino)-1H-pyrazol-1-yl)piperidin-1-yl)ethyl)piperazin-1-yl)phenyl) piperidine-2,6-dione]
 |  | 25 | O=C1CCC(N2C(=O)c3ccc(N4CCN(C(=O)CN5CCC(n6cc(Nc7ncc(-c8ccc9c(c8)NC(=O)CO9)n8ccnc78)cn6)CC5)CC4)cc3C2=O)C(=O)N1 (centres unmarked) [Compound 21, 2-(2,6-dioxopiperidin-3-yl)-5-(4-(2-(4-(4-((5-(3-ox0-3,4-dihydro-2H-benzo[b][1,4]oxazin-6-yl)imidazo[1,2-a]pyrazin-8-yl)amino)-1H-pyrazol-1-yl)piperidin-1-yl)acetyl)piperazin-1-yl)isoindoline-1,3-dione]
 |  | 17 | Cc1cc(-c2cnc(Nc3cnn(C4CCN(C(=O)CN5CCN(c6ccc(C7CCC(=O)NC7=O)cc6)CC5)CC4)c3)c3nccn23)c(F)cc1F (centres unmarked) [Compound 23, 3-(4-(4-(2-(4-(4-((5-(2,4-difluoro-5-methylphenyl)imidazo[1,2-a]pyrazin-8-yl)amino)-1H-pyrazol-1-yl)piperidin-1-yl)-2-oxoethyl)piperazin-1-yl)phenyl)piperidine-2,6-dione]
24 | 2.5 | 9.3 | O=C1CCC(c2ccc(N3CCN(CCN4CCC(n5cc(Nc6ncc(-c7cc8c(cc7F)OCCN8)n7ccnc67)cn5)CC4)CC3)cc2)C(=O)N1 (centres unmarked) [Compound 51, 3-(4-(4-(2-(4-(4-((5-(7-fluoro-3,4-dihydro-2H-benzo[b][1,4]oxazin-6-yl)imidazo[1,2-a]pyrazin-8-yl)amino)-1H-pyrazol-1-yl)piperidin-1-yl)ethyl)piperazin-1-yl)phenyl) piperidine-2,6-dione]
23 | 0.51 | 9.8 | COc1cc(C2CCC(=O)NC2=O)ccc1N1CCN(CCN2CCC(n3cc(Nc4ncc(-c5cc(C)c(F)cc5F)n5ccnc45)cn3)CC2)CC1 (centres unmarked) [Compound 42, 3-(4-(4-(2-(4-(4-((5-(2,4-difluoro-5-methylphenyl)imdazo [1,2-a]pyrazin-8-yl)amino)-1H-pyrazol-1-yl)piperidin-1-yl)ethyl)piperazin-1-yl)-3-methoxyphenyl) piperidine-2,6-dione]
28 | 10 | 15 | Cc1cc(-c2cnc(Nc3cnn(C4CCN(CCN5CCN(c6ccc(C7CCC(=O)NC7=O)c(Cl)c6)CC5)CC4)c3)c3nccn23)c(F)cc1F (centres unmarked) [Compound 54, 3-(2-chloro-4-(4-(2-(4-(4-((5-(2,4-difluoro-5-methylphenyl)imdazo [1,2-a]pyrazin-8-yl)amino)-1H-pyrazol-1-yl)piperidin-1-yl)ethyl)piperazin-1-yl)phenyl) piperidine-2,6-dione]
22 | 0.9 | 11 | Cc1cc(-c2cnc(Nc3cnn(C4CCN(CCN5CCN(c6ccc(C7CCC(=O)NC7=O)c(F)c6)CC5)CC4)c3)c3nccn23)c(F)cc1F (centres unmarked) [Compound 53, 3-(4-(4-(2-(4-(4-((5-(2,4-difluoro-5-methylphenyl)imdazo [1,2-a]pyrazin-8-yl)amino)-1H-pyrazol-1-yl)piperidin-1-yl)ethyl)piperazin-1-yl)-2-fluorophenyl)piper idine-2,6-dione]
24 | 5.7 | 8.72 | Cc1cc(-c2cnc(Nc3cnn([C@H]4CC[C@H](CCN5CCN(c6ccc(C7CCC(=O)NC7=O)cc6)C[C@@H]5C)CC4)c3)c3nccn23)c(F)cc1F (stereo partly drawn) [Compound 57, 3-(4-((S)-4-(2-((trans)-4-(4-((5-(2,4-difluoro-5-methylphenyl)imidazo[1,2-a]pyrazin-8-yl)amino)-1H-pyrazol-1-yl)cyclohexyl)ethyl)-3-methylpiperazin-1-yl)phenyl) piperidine-2,6-dione]

From patent US20260216347A1, “Substituted Imidazo-Based Compounds as Ligand Directed Degraders of IRAK3” (Celgene Corporation, priority 2022, published 2026)
